Test [1] concerns model of memory impairment induced by scopolamine. As to the kind of experiment: Passive avoidance test in scopolamine-induced memory impairment model. To be noted: for Main Experiment / Passive Avoidance Learning: scopolamine 1 mg/Kg i.p.; for Main Experiment: latency 24 h after learning; for latency time extended compared to that of the control 2: main experiment, control 2 = scopolamine. It counts as in vivo, ICR mice. The protocol:
(§1) An experiment was conducted to confirm effects of swertisin or isoorientin, and extracts of Swertia pseudochinensis or Swertia japonica containing the same prepared in Examples 1 to 3 in treating dementia by using a model of memory impairment induced by scopolamine. Detailed method follows.
(§2) Six-week old ICR mice in about 26 g to 28 g (Orientbio Inc, Republic of Korea) were received water and feed without constraint and adapted for 5 days under an environment having about 23±1° C. of temperature, about 60±10% of humidity and 12-hour light/dark cycle (animal laboratory at College of Pharmacy, Kyung-Hee University), and then used for the experiment.
An apparatus for measuring passive avoidance reaction was prepared. The apparatus has 2 separated chambers (the first and second chambers) and there is a guillotine-shaped passage that connects the first chamber and the second chamber. The first chamber was maintained brightly by using a light, and the second chamber was maintained darkly. A grid was installed on the floor of the second chamber. The grid generates 0.5 mA of electric shock for 3 seconds when the laboratory animal moved into the dark chamber.
About 30 minutes later, 1 mg/Kg of scopolamine, which was dissolved in distilled water, was intraperitoneally administered to the drug administration groups 1 to 4 and controls 1 and 2 (Ebert, U. et al., Eur. J. Clin. Invest., 28, pp 944-949, 1998), and 0.9% of saline solution was intraperitoneally administered to the control 3. After 30 minutes, passive avoidance learning was conducted on the drug administration groups 1-4 and controls 1-3. In detail, the mice were located in the first chamber (i.e. bright space) and the passage was open after about 20 seconds of observation time, and then latency time of the mice moving to the second chamber (i.e. dark space) was measured.
Twenty-four hours after the passive avoidance learning, a main experiment was conducted on the drug administration groups 1-4 and controls 1-3. Latency time of the mice of each group moving their 4 legs into the dark space after 10 seconds of observation time from opening of the guillotine-shaped passage was measured up to 300 seconds. It means that the passive avoidance learning and memory are better if the latency time is longer.
The passive avoidance test was conducted on the drug administration groups 1-4 and controls 1-3 in the same manner as the method explained above except that swertisin, which is one of the flavone-6-C-β-D-glucose derivatives prepared in Example 3, was dissolved in 10% Tween 80 and administered to the drug administration groups 1-4 in amounts of 1.25 mg/kg, 2.5 mg/kg, 5 mg/kg and 10 mg/kg respectively.
The passive avoidance test was conducted on the drug administration groups 1-4 and controls 1-3 in the same manner as Experimental Example 1-1 except that isoorientin, which is one of the flavone-6-C-β-D-glucose derivatives prepared in Example 3, was dissolved in 10% Tween 80 and administered to the drug administration groups 1-4 in amounts of 1.25 mg/kg, 2.5 mg/kg, 5 mg/kg and 10 mg/kg respectively.
The passive avoidance test was conducted on the drug administration groups 1-3 and controls 1-3 in the same manner as Experimental Example 1-1 except that a 70% ethanol extract of Swertia japonica prepared in Example 1, was dissolved in 10% Tween and administered to the drug administration groups 1-3 in amounts of 100 mg/kg, 200 mg/kg and 400 mg/kg respectively.
The passive avoidance test was conducted on the drug administration groups 1-3 and controls 1-3 in the same manner as Experimental Example 1-1 except that a 70% ethanol extract of Swertia pseudochinensis prepared in Example 2, was dissolved in 10% Tween 80 and administered to the drug administration groups 1-3 in amounts of 100 mg/kg, 200 mg/kg and 400 mg/kg respectively.

The test system is the same in test [2]. As to the kind of experiment: Y-maze test in scopolamine-treated mice. It counts as in vivo, ICR mice. To be noted: donepezil 5 mg/Kg (Control 1), scopolamine 1 mg/Kg i.p. The procedure: as §1, §2
A Y-maze was prepared for the experiment. The Y-maze has 3 branches and each branch has 42 cm of length, 3 cm of width and 12 cm of height. Angle between any two arms is 120 degrees and the arms were made of black polyvinyl resin.
The mice prepared in the above 1) were separated into 5 groups (10 mice per each group) comprised of drug administration groups 1 and 2, and controls 1 to 3.
The swertisin prepared in Example 3 (8 mg) was dissolved in 4 mL of 10% Tween 80 (Polyoxyethylene sorbitan monooleate: Sigma, U.S.A.), and administered to the drug administration groups 1 and 2 in an amounts of 5 mg/Kg and 10 mg/Kg respectively. Meanwhile, 5 mg/Kg of donepezil was administered to the control 1, and 0.15 mL of 10% Tween 80 was administered to the controls 2 and 3 respectively.
About 30 minutes later, 1 mg/Kg of scopolamine, which was dissolved in distilled water, was intraperitoneally administered to the drug administration groups 1 and 2, and controls 1 and 2 (Ebert, U. et al., Eur. J. Clin. Invest., 28, pp. 944-949, 1998), and 0.9% of saline solution was intraperitoneally administered to the control 3.
After 30 minutes, mice of the drug administration groups 1 and 2, and the controls 1-3 were carefully located on each branches of the Y-maze, which was divided as A, B and C respectively, and let the mice move freely for 8 minutes, and then recorded branches where mice have entered. The entrance was recorded when the entire body (i.e. including the tail) has completely entered. It was also recorded when the mice entered again into the branch that the mice have entered before.
One point was scored when the mouse sequentially entered into 3 different branches (actual alternation). Alternation behavior is defined as sequentially entering into every 3 branch, and it was converted into % via Equation 1 below (Sarter, M. et al., Psychopharmacology., 94, pp. 491-495, […]).

For the molecule `COc1cc2c(cc1OC)C(=O)C(CC1CCN(Cc3ccccc3)CC1)C2` (stereo not drawn) [Donepezil, donepezil, reference compound], the “Main Experiment” value in test [1] (Table 2, Control 1 (Donepezil), dose not given) came to 138.7 ± 34.03 s; in test [1] (Table 3, Control 1 (Donepezil), dose not given), 127.8 ± 11.43 s; in test [1] (Table 4, Control 1 (Donepezil), dose not given), 169.6 ± 79.98; in test [1] (Table 5, Control 1 (Donepezil), dose not given) it was 159.6 ± 65.51. Also, the “Passive Avoidance Learning” value amounted to 25.60 ± 10.83 s in test [1] (Table 2, Control 1 (Donepezil), dose not given, learning trial); 21.30 ± 4.964 s in test [1] (Table 3, Control 1 (Donepezil), dose not given, learning trial); 26.40 ± 16.23 in test [1] (Table 4, Control 1 (Donepezil), dose not given, learning trial); 28.10 ± 19.02 in test [1] (Table 5, Control 1 (Donepezil), dose not given, learning trial). In addition, the “Alternation Behavior (%)” value in test [2] (Table 6, 8 minutes in Y-maze) worked out at 61.49 ± 5.447%. In addition, in test [2] (Table 7, total number of entry to each branch, 8 minutes), the “Total Entry” value came to 29.30 ± 4.296.
Regarding `O=c1cc(-c2ccc(O)c(O)c2)oc2cc(O)c([C@@H]3O[C@H](CO)[C@@H](O)[C@H](O)[C@H]3O)c(O)c12` [isoorientin], the “Main Experiment” value in test [1] (Table 3, isoorientin 1.25 mg/kg, up to 300 seconds) is 41.00 ± 7.988 s; in test [1] (Table 3, isoorientin 2.5 mg/kg, up to 300 seconds), 80.90 ± 19.44 s; in test [1] (Table 3, isoorientin 5 mg/kg, up to 300 seconds), 119.3 ± 73.43 s; in test [1] (Table 3, isoorientin 10 mg/kg, up to 300 seconds) it was 102.8 ± 15.89 s. Further, the “Passive Avoidance Learning” value in test [1] (Table 3, isoorientin 1.25 mg/kg, latency in learning trial) was found to be 43.60 ± 5.340 s; in test [1] (Table 3, isoorientin 2.5 mg/kg, latency in learning trial), 40.00 ± 5.499 s; in test [1] (Table 3, isoorientin 5 mg/kg, latency in learning trial), 35.20 ± 5.236 s; in test [1] (Table 3, isoorientin 10 mg/kg, latency in learning trial), 26.80 ± 5.085 s. In addition, the “latency time extended compared to that of the control 2” value in test [1] (isoorientin 2.5 mg/Kg) is reported as “about 2 fold”; in test [1] (isoorientin 5 mg/Kg), “about 3 fold”; in test [1] (isoorientin 10 mg/Kg) it was “about 2.5 fold”.

These data come from US10251902B2, “Pharmaceutical composition for treating or preventing neuropsychiatric disease, containing flavone-6-C-glucose derivatives as active ingredients” (priority 2013, dated 2019).
